Molecular target: T1, recombinant human PDK1 (Homo sapiens, UniProt O15530)
T1 construct: containing amino acids 51-556 of the human PDK1 enzyme; made in house; host or cells: Sf9 insect cells
T1 sequence (O15530 51-556): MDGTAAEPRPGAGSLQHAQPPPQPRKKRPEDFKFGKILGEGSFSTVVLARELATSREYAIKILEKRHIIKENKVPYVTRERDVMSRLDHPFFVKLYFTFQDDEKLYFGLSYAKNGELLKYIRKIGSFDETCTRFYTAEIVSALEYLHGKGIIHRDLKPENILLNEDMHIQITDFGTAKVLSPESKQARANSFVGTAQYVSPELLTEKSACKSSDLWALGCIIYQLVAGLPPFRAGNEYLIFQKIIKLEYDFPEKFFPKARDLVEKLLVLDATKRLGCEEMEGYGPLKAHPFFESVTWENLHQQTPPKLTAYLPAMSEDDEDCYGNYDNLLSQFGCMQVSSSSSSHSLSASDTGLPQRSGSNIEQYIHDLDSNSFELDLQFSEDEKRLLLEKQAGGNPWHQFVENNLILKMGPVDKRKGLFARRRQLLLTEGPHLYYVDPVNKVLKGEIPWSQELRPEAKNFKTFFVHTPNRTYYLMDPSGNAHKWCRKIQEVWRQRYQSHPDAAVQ
Experiment: PDK1 IMAP fluorescence polarization assay (inhibition of peptide substrate phosphorylation)
Type: biochemical
Conditions: Table 10; compounds 97-132

IC50 [nM]	Structure (SMILES)
1 to 50	CNc1nc(-c2c[nH]c(C(=O)Nc3cccc(F)c3N3CCC(CN)CC3)n2)cc(N2C[C@@H](C(=O)NC3CCCCC3)CC[C@H]2C)n1 [Compound 115, (3S,6R)-1-(6-(2-(2-(4-(aminomethyl)piperidin-1-yl)-3-fluorophenylcarbamoyl)-1H-imidazol-4-yl)-2-(methylamino)pyrimidin-4-yl)-N-cyclohexyl-6-methylpiperidine-3-carboxamide]
1 to 50	CNc1nc(-c2c[nH]c(C(=O)Nc3cccc(F)c3N3CCC(CN)CC3)n2)cc(N2CCOC[C@H]2C)n1 [Compound 121, (R)—N-(2-(4-(aminomethyl)piperidin-1-yl)-3-fluorophenyl)-4-(2-(methylamino)-6-(3-methylmorpholino)pyrimidin-4-yl)-1H-imidazole-2-carboxamide]
1 to 50	CNc1nc(-c2c[nH]c(C(=O)Nc3cccc(F)c3N3CCC(CN)CC3)n2)cc(N2CCO[C@H](CN)C2)n1 [Compound 123, (R)-4-(6-(2-(aminomethyl)morpholino)-2-(methylamino)pyrimidin-4-yl)-N-(2-(4-(aminomethyl)piperidin-1-yl)-3-fluorophenyl)-1H-imidazole-2-carboxamide]

Continued, molecule first:

Structure (SMILES)	IC50 [nM]
CNc1nc(-c2c[nH]c(C(=O)Nc3ccccc3N3CCNCC3)n2)cc(N2CCOC(C(=O)NC3CCCCC3)C2)n1 (stereo not shown) [Compound 106, N-cyclohexyl-4-(2-(methylamino)-6-(2-(2-(piperazin-1-yl)phenylcarbamoyl)-1H-imidazol-4-yl)pyrimidin-4-yl)morpholine-2-carboxamide]	51 to 250
CNc1nc(-c2c[nH]c(C(=O)Nc3cccc(F)c3N3CCC(CN)CC3)n2)cc(N2C[C@H](C(=O)NC3CCCCC3)CC[C@@H]2C)n1 [Compound 116, (3R,6S)-1-(6-(2-(2-(4-(aminomethyl)piperidin-1-yl)-3-fluorophenylcarbamoyl)-1H-imidazol-4-yl)-2-(methylamino)pyrimidin-4-yl)-N-cyclohexyl-6-methylpiperidine-3-carboxamide]	1 to 50
CNc1nc(-c2c[nH]c(C(=O)Nc3cccc(F)c3N3CCO[C@@H](CN)C3)n2)cc(N2C[C@@H](C(=O)NC3CCCCC3)CC[C@H]2C)n1 [Compound 117, (3S,6R)-1-(6-(2-(2-((S)-2-(aminomethyl)morpholino)-3-fluorophenylcarbamoyl)-1H-imidazol-4-yl)-2-(methylamino)pyrimidin-4-yl)-N-cyclohexyl-6-methylpiperidine-3-carboxamide]	1 to 50
CNc1nc(-c2c[nH]c(C(=O)Nc3cccc(F)c3N3CCC(CN)CC3)n2)cc(N2CCNC[C@H]2C)n1 [Compound 120, (R)—N-(2-(4-(aminomethyl)piperidin-1-yl)-3-fluorophenyl)-4-(2-(methylamino)-6-(2-methylpiperazin-1-yl)pyrimidin-4-yl)-1H-imidazole-2-carboxamide]	1 to 50
CNc1nc(-c2c[nH]c(C(=O)Nc3cccc(F)c3N3CCC(CN)CC3)n2)cc(N2CCN[C@@H](C)C2)n1 [Compound 124, (S)—N-(2-(4-(aminomethyl)piperidin-1-yl)-3-fluorophenyl)-4-(2-(methylamino)-6-(3-methylpiperazin-1-yl)pyrimidin-4-yl)-1H-imidazole-2-carboxamide]	1 to 50
CNc1nc(-c2c[nH]c(C(=O)Nc3cccc(F)c3N3CCC(CN)CC3)n2)cc(N2CCC(CN)CC2)n1 [Compound 125, 4-(6-(4-(aminomethyl)piperidin-1-yl)-2-(methylamino)pyrimidin-4-yl)-N-(2-(4-(aminomethyl)piperidin-1-yl)-3-fluorophenyl)-1H-imidazole-2-carboxamide]	1 to 50
CNc1nc(-c2c[nH]c(C(=O)Nc3cccc(F)c3N3CCC(CN)CC3)n2)cc(N2CCC[C@@H](N)C2)n1 [Compound 126, (R)—N-(2-(4-(aminomethyl)piperidin-1-yl)-3-fluorophenyl)-4-(6-(3-aminopiperidin-1-yl)-2-(methylamino)pyrimidin-4-yl)-1H-imidazole-2-carboxamide]	1 to 50

Reference: patent US8623857B2, “N-phenyl imidazole carboxamide inhibitors of 3-phosphoinositide-dependent protein kinase-1” (Merck Sharp & Dohme Corp., priority 2010, dated 2014)
